# Measured values as given in BindingDB's records for doi:10.7270/Q2Q52N1X (Vanderbilt Screening Center for GPCRs, Ion Channels and …, 2009).
# Molecular target: T1, Solute carrier family 12 member 5 (Homo sapiens, UniProt Q9H2X9)
# T1 sequence (Q9H2X9 whole entry): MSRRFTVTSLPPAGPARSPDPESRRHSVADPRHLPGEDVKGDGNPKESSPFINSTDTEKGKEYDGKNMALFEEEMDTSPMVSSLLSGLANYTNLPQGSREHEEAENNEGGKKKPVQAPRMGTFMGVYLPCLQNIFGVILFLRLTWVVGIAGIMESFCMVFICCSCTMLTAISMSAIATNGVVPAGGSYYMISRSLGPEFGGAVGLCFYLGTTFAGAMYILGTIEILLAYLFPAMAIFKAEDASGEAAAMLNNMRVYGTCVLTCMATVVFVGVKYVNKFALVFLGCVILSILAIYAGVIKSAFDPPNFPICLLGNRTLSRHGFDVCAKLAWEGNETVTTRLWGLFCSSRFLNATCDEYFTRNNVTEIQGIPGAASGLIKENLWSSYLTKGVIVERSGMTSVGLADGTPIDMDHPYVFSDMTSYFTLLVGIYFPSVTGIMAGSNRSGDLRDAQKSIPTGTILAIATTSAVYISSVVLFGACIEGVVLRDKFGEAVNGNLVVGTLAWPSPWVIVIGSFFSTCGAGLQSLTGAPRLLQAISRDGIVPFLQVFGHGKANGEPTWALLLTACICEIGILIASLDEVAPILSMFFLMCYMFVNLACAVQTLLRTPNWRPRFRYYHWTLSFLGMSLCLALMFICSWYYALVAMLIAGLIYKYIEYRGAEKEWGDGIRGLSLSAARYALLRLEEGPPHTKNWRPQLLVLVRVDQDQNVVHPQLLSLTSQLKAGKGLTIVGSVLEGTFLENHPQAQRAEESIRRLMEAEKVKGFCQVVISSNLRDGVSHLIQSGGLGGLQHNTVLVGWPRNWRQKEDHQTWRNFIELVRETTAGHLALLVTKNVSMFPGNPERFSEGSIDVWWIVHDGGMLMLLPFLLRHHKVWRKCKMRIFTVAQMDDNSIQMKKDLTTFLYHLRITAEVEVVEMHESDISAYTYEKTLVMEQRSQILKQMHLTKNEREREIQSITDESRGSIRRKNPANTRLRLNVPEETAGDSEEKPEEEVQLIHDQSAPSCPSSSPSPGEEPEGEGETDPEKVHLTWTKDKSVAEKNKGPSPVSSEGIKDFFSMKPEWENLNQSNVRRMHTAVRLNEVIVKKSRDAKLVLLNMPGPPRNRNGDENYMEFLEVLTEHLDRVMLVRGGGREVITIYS
# Assay: KCC2 modulator potency by thallium flux, dose response, cell-based, HEK293 KCC2, FluoZin-2 fluorescence (AID 1736)
# Conditions: not given
row,Compound,EC50 [µM]
1,"O=C1Nc2ccc([N+](=O)[O-])cc2OC1CCN1CCN(Cc2ccccc2)CC1 (centres undefined) [2-[2-(4-benzylpiperazin-1-yl)ethyl]-7-nitro-4H-1,4-benzoxazin-3-one]",15.1
2,COc1cc(C(=S)N2CCOCC2)ccc1OC(=O)Cc1ccc(F)cc1 [(2-methoxy-4-morpholin-4-ylcarbothioyl-phenyl) 2-(4-fluorophenyl)ethanoate],137
3,"O=C(CSc1ccc(-c2ccccc2)nn1)N1CCCc2ccccc21 [1-(3,4-dihydro-2H-quinolin-1-yl)-2-(6-phenylpyridazin-3-yl)sulfanyl-ethanone]",10.5
4,"COc1ccc(-c2nnc(S/C(=C/c3ccc(Cl)cc3)C(=O)O)o2)cc1 [(E)-3-(4-chlorophenyl)-2-[[5-(4-methoxyphenyl)-1,3,4-oxadiazol-2-yl]sulfanyl]prop-2-enoic acid]",0.489
5,CCN(CC)S(=O)(=O)c1ccc(NC(=O)CSc2ncnc3ccccc23)cc1 [MLS000393282],5.08
6,Cn1c(C(=O)NCCCN2CCN(c3ccccc3F)CC2)cc2c(=O)n(C)c3ccccc3c21 [MLS000118127],7.12
7,CCc1ccc(OCCNC(=O)c2ccccc2SCc2ccc(F)cc2)cc1 [MLS000577152],0.304
8,O=C(CNC(=O)/C(=C/c1ccccc1)NC(=O)c1ccc(Br)cc1)OCc1ccccc1 [(phenylmethyl) 2-[[(Z)-2-[(4-bromophenyl)carbonylamino]-3-phenyl-prop-2-enoyl]amino]ethanoate],0.678
9,"O=C(Cn1c(-c2ccc(Cl)cc2)noc1=O)N1CCN(c2ccccc2F)CC1 [3-(4-Chloro-phenyl)-4-{2-[4-(2-fluoro-phenyl)-piperazin-1-yl]-2-oxo-ethyl}-4H-[1,2,4]oxadiazol-5-one]",6.07
10,O=C(c1ccc(S(=O)(=O)c2cccc(Cl)c2)c([N+](=O)[O-])c1)N1CCN(c2ccccn2)CC1 [1-{4-[(3-chlorophenyl)sulfonyl]-3-nitrobenzoyl}-4-pyridin-2-ylpiperazine],3.61
11,"CCOC(=O)c1cc2c(ccn2C)n1CC(=O)N1CCC(Cc2ccccc2)CC1 [1-[2-(4-Benzyl-piperidin-1-yl)-2-oxo-ethyl]-4-methyl-1,4-dihydro-pyrrolo[3,2-b]pyrrole-2-carboxylic acid ethyl ester]",7.58
12,"O=C(C1CC1)N1CCc2cc(S(=O)(=O)NC3CCN(Cc4ccccc4)CC3)ccc21 [1-[cyclopropyl(oxo)methyl]-N-[1-(phenylmethyl)-4-piperidinyl]-2,3-dihydroindole-5-sulfonamide]",22.7
13,"CN(Cc1ccccc1)c1nc2nonc2nc1N1CCCC(CN2CCCC2=O)C1 (centres undefined) [1-[(1-{6-[benzyl(methyl)amino][1,2,5]oxadiazolo[3,4-b]pyrazin-5-yl}piperidin-3-yl)methyl]pyrrolidin-2-one]",9050
14,CC(C)NC(=S)NNC1=c2cc(C(C)C)ccc2=NC1=O [SMR000242097],145
15,Cc1nn(-c2ccc(F)cc2)c(C)c1NS(=O)(=O)c1ccc2ccccc2c1 [MLS000565745],1.99
16,"CC1Cc2ccccc2N1C(=O)c1ccc(N2CCCC2)c([N+](=O)[O-])c1 (centres undefined) [(2-methyl-2,3-dihydroindol-1-yl)-(3-nitro-4-pyrrolidin-1-yl-phenyl)methanone]",0.361
17,c1ccc(-c2csc(N=NCc3cccnc3)n2)cc1 [(4-phenylthiazol-2-yl)-(3-pyridylmethyleneamino)amine],35.8
18,O=C(NN1C(=O)/C(=C/c2nc3ccccc3[nH]2)SC1=S)c1ccccc1Cl [N-{5-[1-(1H-Benzoimidazol-2-yl)-meth-(Z)-ylidene]-4-oxo-2-thioxo-thiazolidin-3-yl}-2-chloro-benzamide],0.153
19,"CC(NC(=O)CCc1nnc(-c2ccc(-c3ccccc3)cc2)o1)c1nccs1 (centres undefined) [3-(5-biphenyl-4-yl-1,3,4-oxadiazol-2-yl)-N-[1-(1,3-thiazol-2-yl)ethyl]propanamide]",4.79

row,Compound,EC50 [µM]
1,Cn1c(SCc2ccccc2Cl)nc2ccccc21 [2-[(2-chlorobenzyl)thio]-1-methyl-1H-benzimidazole],3.96
2,Cc1cc([N+](=O)[O-])ccc1NCc1ccccc1 [2-methyl-4-nitro-N-(phenylmethyl)aniline],31.3
3,Cc1ccc2[nH]c(=O)c(CN(CCc3ccccc3)Cc3nnnn3CC3CCCO3)cc2c1 (centres undefined) [SMR000003177],244
4,N#Cc1nc(Cc2cccc3ccccc23)oc1N1CCOCC1 [5-(4-morpholinyl)-2-(1-naphthalenylmethyl)-4-oxazolecarbonitrile],1.77
5,Cc1[nH]c2ccccc2c1SCC(=O)N1CCN(c2ccccc2)CC1 [2-[(2-methyl-1H-indol-3-yl)thio]-1-(4-phenyl-1-piperazinyl)ethanone],86.4
6,CS/C(=N\Cc1ccc(F)cc1)NS(=O)(=O)c1cccs1 [3-(4-fluorobenzyl)-2-methyl-1-(2-thienylsulfonyl)isothiourea],0.89
7,Cn1c(CSc2nc3ccccc3s2)nc2ccccc21 [2-(1-Methyl-1H-benzoimidazol-2-ylmethylsulfanyl)-benzothiazole],12.4
8,"Sc1nnc(COc2ccc(Cl)cc2)o1 [5-(4-Chloro-phenoxymethyl)-3H-[1,3,4]oxadiazole-2-thione]",4.06
9,"COC(=O)Cc1[nH]n(-c2nc3ccccc3s2)c(=O)c1C(C)=Nc1ccc(Cl)cc1 [methyl 2-[(4E)-1-(1,3-benzothiazol-2-yl)-4-[1-[(4-chlorophenyl)amino]ethylidene]-5-oxidanylidene-pyrazol-3-yl]ethanoate]",77.3
10,Cc1nc(SCc2ccc(F)cc2)c([N+](=O)[O-])[nH]1 [SMR000271028],878
11,"CCOc1[nH]n(-c2ccccc2)c(=O)c1C=Nc1ccc(F)cc1F [(4E)-4-[[[2,4-bis(fluoranyl)phenyl]amino]methylidene]-5-ethoxy-2-phenyl-pyrazol-3-one]",0.0323
12,"Cn1cc(C(=O)C(=O)N2CCCc3ccccc32)c2ccccc21 [1-(3,4-dihydro-2H-quinolin-1-yl)-2-(1-methyl-3-indolyl)ethane-1,2-dione]",3.72
13,CCc1ccc(C(=O)COC(=O)c2cc([N+](=O)[O-])ccc2NCCO)cc1 [2-(2-hydroxyethylamino)-5-nitro-benzoic acid [2-(4-ethylphenyl)-2-keto-ethyl] ester],5.45
14,"COc1cccc(Nc2nnc(S)s2)c1 [5-(3-methoxyanilino)-3H-1,3,4-thiadiazole-2-thione]",2.8
15,O=C(O)/C=C/c1cn(Cc2ccccc2Cl)nc1-c1ccccc1 [(E)-3-[1-(2-chlorobenzyl)-3-phenyl-pyrazol-4-yl]acrylic acid],2.04
16,"COc1cc(C(=S)N2CCOCC2)cc(OC)c1OC(=O)Cc1ccccc1 [(2,6-dimethoxy-4-morpholin-4-ylcarbothioyl-phenyl) 2-phenylethanoate]",1.16
17,COc1ccccc1-n1cnc2cc(NS(=O)(=O)c3ccccc3)ccc21 [MLS000032522],101
18,O=C(C[n+]1ccccc1)c1ccc(-c2ccccc2)cc1 [1-(4-phenylphenyl)-2-(1-pyridin-1-iumyl)ethanone;bromide],43.6
19,O=C(O)c1cc([N+](=O)[O-])ccc1NCc1ccccc1 [2-(benzylamino)-5-nitro-benzoic acid],4.96

# Same assay, conditions: inactive by the depositor's call
row,Compound,EC50 [µM]
1,"COc1cc(C)c(C)cc1S(=O)(=O)N1CCN(Cc2ccccc2)CC1 [1-(2-methoxy-4,5-dimethyl-phenyl)sulfonyl-4-(phenylmethyl)piperazine]",33.3
